From article PMC10295666 (Bioengineering, 2023)
Positions of bridges follow the written chain, without caps; N, C: chain ends. Residues, ends and D or L forms follow the SMILES beside them. No end group written: not given here.

Legend:
[1] = In vitro serum stability assay of peptides (HPLC-UV / LC-MS); type: in vitro ADME; details: human; serum from healthy individuals mixed with peptide 9:1, peptide 1 mg/mL, 37 °C, 0-1440 min, 10% TFA precipitation, HPLC-UV (C18) peak area
Procedure: The serum obtained from healthy individuals was centrifuged at a low speed and mixed with peptides at a ratio of 9:1 to achieve a peptide concentration of 1 mg/mL. The peptide–serum mixture was then incubated at 37 °C for different periods. After reaching the pre-determined time point (0, 10, 20, 30, 60, 120, 240, 480, 960, or 1440 min), pure trifluoroacetic acid was added to each sample to reach a final concentration of 10%. The mixture was then vortexed and centrifuged for 10 min at 13,000 rpm, and the supernatant (10 μL) was collected and stored in HPLC vials for analysis.
HPLC-UV analysis was performed using a C18 analytical column (Thermo Acclaim300 C18 LC ColuMns, 4.6 mm diameter, 150 mm length, Catalog #: 060266) and a Waters ACQUITY Arc Bio instrument, following the method shown in Table 1. The target peak was determined based on the retention time of pure peptides, and on this basis, detect peptides were degraded at different times and their peak area recorded to generate a degradation curve. The degradation rate of peptides was equal to (Areasample − Areablank)/(Areacontrol − Areablank) × 100%. The area of the blank was equal to the peak area detected after mixing peptides with ultrapure water at the same initial concentration. The signal-to-noise ratio of all collected data was greater than 10. […]

[2] = system: normal human liver cell line 7701; test: Toxicity on normal liver cells; type: cell-based; details: QSG-7701 cells
Procedure: Normal human liver cells QSG-7701 and Hepatocellular Carcinoma Cell lines 7721, Huh7, MHCC97H, MHCC97L, and HepG2 were all obtained from the Institute of Biomedical Sciences, Jinan University. All cells were cultured in DMEM medium (Gibco, Grand Island, NE, USA) supplemented with 10% fetal bovine serum (Gibco, Grand Island, NE, USA). The cell lines were incubated in a humidified atmosphere with 5% CO2 at 37 °C.
Cells in the logarithmic growth phase with good viability were seeded into 96-well plates at a density of 2500 cells per well and incubated for 24 h at 37 °C with 5% CO2. The old medium was removed, and the cells were starved with DMEM medium containing 0.5% FBS for 24 h. Peptides were diluted with 0.5% starved medium to different concentrations and added to each well with the same volume. The cells were then incubated for an additional 48 h at 37 °C. After removing the medium, 100 μL of CCK-8 working solution was added to each well, and the plate was incubated for 1 h at 37 °C with 5% CO2. Finally, the absorbance at 450 nm of each well was measured using a multifunctional microplate reader. Cell viability (%) was equal to (Asample − Ablank)/(Acontrol − Ablank) × 100%. […]
Cells in the logarithmic growth phase were seeded at a density of 1000 cells per well in 6-well plates and cultured for 24 h. […] After air-drying the plate, the colonies were photographed and counted.

[3] = system: MHCC97L transplant tumors; test: MHCC97L subcutaneous xenograft model; details: 25 mg/kg tail vein injection, monitored every two days for 14 days, n = 4
Procedure: Male BALB/c-nude mice were purchased from Guangdong GemPharmatech Co., Ltd. These mice were fed with food and purified water at room temperature in the SPF laboratory. MHCC97L cells (0.1 mL of physiological saline containing 1 × 10^7 cells) were subcutaneously injected into the armpit of 5-week-old male BALB/c-nude mice. Tumor volume and weight were measured every 2 days, and tumor volume was calculated using the following formula: (short axis)^2 × (long axis)/2. When the tumor volume reached approximately 50 mm^3, these mice were weighed and randomly divided into 3 groups (n = 4): the model group, the SAIF group (25 mg/kg), and the ctSAIF group (25 mg/kg). SAIF and ctSAIF were administered via tail vein injection at a dose of 25 mg/kg. The peptide was dissolved in saline solution to 5 mg/mL, and the dosage volume of each mouse was calculated using the following formula: (25 mg/kg × body weight)/(5 mg/mL). After 14 days of treatment, the mice were sacrificed, and the tumors were collected for histopathological examination.

[4] = serum obtained from healthy individuals; details: 37 °C, up to 1440 min

| Compound | half-life at 1 mg/mL [1] | toxicity on normal human liver cell line 7701 [2] | weight of nude mice during treatment [3] | fragment found [4] |
| --- | --- | --- | --- | --- |
| CSCC[C@@H]1NC(=O)[C@H](C)NC(=O)[C@H](CC(=O)O)NC(=O)[C@H](C)NC(=O)[C@H](CO)NC(=O)[C@H](CCSC)NC(=O)[C@H](CCCNC(=N)N)NC(=O)[C@H](C(C)C)NC(=O)[C@H](CCCNC(=N)N)NC(=O)[C@H](CCCCN)NC(=O)[C@H](CC(C)C)NC(=O)[C@@H]2CCCN2C(=O)[C@@H]2CCCN2C(=O)[C@H](CCCNC(=N)N)NC(=O)[C@H](CCCCN)NC(=O)[C@H](Cc2ccccc2)NC(=O)[C@H](CCCCN)NC(=O)CNC(=O)[C@H](CCCCN)NC(=O)[C@@H](N)CSSC[C@@H](C(=O)O)NC(=O)[C@H](CC(C)C)NC1=O [ctSAIF] (H-CKGKFKRPPLKRVRMSADAMLC-OH; disulfide 1-22) | ~6 h | no significant toxicity | no significant changes |  |
| KEIDDLNLKVFDLKGKFKRPPLKRVRMSADAML |  |  |  | tSAIF (KGKFKRPPLKRVRMSADAML), 2 h |
| KEIDDLNLKVFDLKGKFKRPPLKRVRMSADAML [SAIF] |  | no significant toxicity |  |  |
